Reference: patent USRE47689E1, “Compounds for treating spinal muscular atrophy” (PTC Therapeutics, Inc., priority 2011, dated 2019)

How the values were obtained:
[1] = test system: SMA Δ7 homozygous knockout mice; experiment: Body weight of neonatal Δ7 SMA mice; type: in vivo, mouse; settings: IP QD from PND 3, then orally BID until study end, compared to vehicle
Description: The change in body weight of neonatal SMA mice is used to determine whether treatment with a test compound improves body weight.
Protocol. SMA Δ7 homozygous knockout mice are dosed intraperitoneally (IP) with test compound or vehicle (100% DMSO) once per day (QD) from postnatal day (PND) 3 until the dose regimen is switched to an oral dose twice per day (BID) in 0.5% hydroxypropylmethyl cellulose (HPMC) with 0.1% Tween-80 at a dose 3.16-fold higher than the dose used for IP. Body weights of SMA Δ7 mice treated with test compound or vehicle and age matched heterozygous mice are recorded every day.

[2] = test system: Smn protein; experiment: Smn protein assay in cultured cells (SMN HTRF); type: cell-based, human; settings: 48 hours; for Smn protein expression: SMA Type 1 patient fibroblast cells, SMN HTRF assay; for maximum fold (Fold) increase of Smn protein: SMA patient fibroblast cells, 7-point concentration data, fold increase relative to vehicle control (SMN HTRF)
Outline: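 Smn in SMA fibroblast lysates, measured by anti-SMN HTRF after 48 h compound exposure; EC1.5x from fold change over vehicle.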

[3] = test system: full length and Δ7 SMN2 mRNAs; experiment: Endogenous SMN2 mRNA end-point semi-quantitative RT-PCR splicing assay in cultured cells; type: cell-based, human; settings: GM03813 Type 1 SMA patient fibroblasts, increasing concentrations, 24 hrs, agarose gel
Description: The endpoint reverse transcription-PCR splicing assay is used to visualize and quantify the levels of the full length and Δ7 SMN2 mRNAs in primary cells and cell lines containing the SMN2 gene treated with a test compound.
Protocol. GM03813 SMA patient cells (5,000 cells/well) are seeded in 200 μL of cell culture medium (DMEM plus 10% FBS) in 96-well flat-bottom plates and the plate is immediately swirled to ensure proper dispersal of cells, forming an even monolayer of cells. Cells are allowed to attach for at least 4-6 hrs. Test compounds are serially diluted 3.16-fold in 100% DMSO to generate a 7-point concentration curve. A solution of test compound (1 μL, 200× in DMSO) is added to each test well and 1 μL DMSO is added to each control well. The plate is incubated for 24 hrs in a cell culture incubator (37° C., 5% CO2, 100% relative humidity). The cells are then lysed in Cells-To-Ct lysis buffer and the lysate is stored at −80° C.
SMN FL and Δ7 mRNAs are identified using the following primers in Table 6. These primers hybridize to a nucleotide sequence in exon 6 (SMN Forward C, SEQ ID NO. 11) (nucleotide 43 to nucleotide 63) and exon 8 (SMN Reverse C, SEQ ID NO. 12) (nucleotide 51 to nucleotide 73) common to human SMN1 and SMN2 mRNAs. Since the SMA patient cells used in Example 4 contain only the SMN2 gene, RT-PCR can visualize and quantify only SMN2 full-length and SMN2 Δ7 mRNAs.
To synthesize cDNA, 5 μL of lysate, 4 μL of 5× iScript reaction mix, 1 μL of reverse transcriptase, and 10 μL of water are combined and incubated 5 min at 25° C. followed by 30 min at 42° C., followed by 5 min at 85° C. cDNA solution is stored at −20° C.
To perform endpoint PCR, 5 μL of cDNA, 0.2 μL of 100 μM forward primer, 0.2 μL of 100 μM reverse primer, and 22.5 μL of polymerase super mix are combined in a 96 well semiskirted PCR plate. PCR is carried out at the following temperatures for indicated time: Step 1: 94° C. (2 min), Step 2: 94° C. (30 sec), Step 3: 55° C. (30 sec), Step 4: 68° C. (1 min), then repeat Steps 2 to 4 for a total of 33 cycles, then hold at 4° C.
10 μL of each PCR sample is electrophoretically separated on a 2% agarose E-gel for 14 minutes stained with ds DNA staining reagents (e.g., ethidium bromide) and visualized using a gel imager.

SMILES | body weight [1] | EC1.5x (concentration giving 1.5-fold Smn protein increase) ([2]; SMA Type 1 patient fibroblast cells (GM03813), 7-point concentration curve, SMN HTRF, concentration producing 1.5 times Smn protein vs DMSO vehicle control, read-out: EC1.5x for Smn protein expression) [nM] | Smn protein expression [2] | maximum fold (Fold) increase of Smn protein [2] | SMN2 FL mRNA [3] | SMN2 Δ7 mRNA [3]
CCN1CCN(c2ccc3cc(-c4cn5cc(C)nc(C)c5n4)c(=O)oc3c2)C[C@@H]1C [Cpd 626, 3-(6,8-dimethylimidazo[1,2-a]pyrazin-2-yl)-7-[(3S)-4-ethyl-3-methylpiperazin-1-yl]-2H-chromen-2-one] | improved compared to vehicle treated mice | < 300 | dose dependent increase in Smn protein expression | **** (fold increase between >1.5 and ≤1.65) | progressively more SMN2 FL mRNA | less SMN2 Δ7 mRNA
CC(C)NCCc1ccc2cc(-c3nc4c(Cl)cccc4s3)c(=O)oc2c1 [Cpd 35, 3-(4-chloro-1,3-benzothiazol-2-yl)-7-[2-(propan-2-ylamino)ethyl]-2H-chromen-2-one] | improved compared to vehicle treated mice |  | dose dependent increase in Smn protein expression | * (maximum fold increase of ≤1.2) | progressively more SMN2 FL mRNA | less SMN2 Δ7 mRNA
